What was measured:
[1] = test system: methicillin-susceptible S. aureus (SA 29213); experiment: Metabolic labelling (D-Ala-N3 / DBCO-AF488) fluorescence under penicillin G treatment; format: cell-based
[2] = test system: methicillin-resistant S. aureus (MRSA BAA39); experiment: as above; format: cell-based
[3] = test system: S. aureus 29213; experiment: Flow cytometry of metabolic labelling under penicillin G; format: cell-based; details: penicillin G 0-128 μg/mL, 3 h, vs untreated controls
[4] = test system: MRSA BAA39; experiment: as above; format: cell-based, S. aureus; details: penicillin G up to 128 μg/mL, 3 h
[5] = test system: SA 29213; experiment: MILab-microarray assay; format: cell-based, S. aureus
[6] = test system: MRSA BAA38; experiment: MILab-microarray assay; format: cell-based, S. aureus
[7] = test system: SA 29213; experiment: MILab-ELISA assay; format: cell-based, S. aureus; details: penicillin G 16 μg/mL
[8] = test system: BAA39; experiment: MILab-ELISA assay; format: cell-based, S. aureus; details: penicillin G 16 μg/mL
[9] = test system: SA 29213; experiment: MILab-LFA assay; format: cell-based, S. aureus
[10] = test system: BAA39; experiment: MILab-LFA assay; format: cell-based, S. aureus
[11] = test system: drug-susceptible (SA 29213) S. aureus; experiment: MILab-based MiChip (SERS) assay; format: cell-based
[12] = test system: drug-resistant (BAA40) S. aureus; experiment: MILab-based MiChip (SERS) assay; format: cell-based
[13] = penicillin G 16 μg/mL, 15 min to 4 hours
[14] = penicillin G 16 μg/mL, 1×10^4 CFU/mL

CC1(C)S[C@@H]2[C@H](NC(=O)Cc3ccccc3)C(=O)N2[C@H]1C(=O)[O-].[Na+] [penicillin G, Penicillin G sodium]
fluorescence intensity of metabolic labelling over incubation time ([1]; penicillin G 16 μg/mL, 0.5 to 5 h, susceptible SA 29213): kept constraint
metabolic labelling of single bacteria (confocal imaging) ([1]; penicillin G 16 μg/mL, susceptible strains): negligible labelling
fluorescence intensity of metabolic labelling at varying antibiotic concentration ([1]; penicillin G 2-128 μg/mL, susceptible bacteria): completely inhibit the metabolic labelling
fluorescence intensity of metabolic labelling over incubation time ([2]; penicillin G 16 μg/mL, 0.5 to 5 h, resistant MRSA BAA39): increased quickly with increasing incubation time
metabolic labelling of single bacteria (confocal imaging) ([2]; penicillin G 16 μg/mL, resistant strains): selective labelling
fluorescence intensity of metabolic labelling at varying antibiotic concentration ([2]; penicillin G 2-128 μg/mL, resistant bacteria): much stronger fluorescence intensity
labelling degree of individual bacteria (flow cytometry) [3]: considerably reduced labelling
labelling degree of individual bacteria (flow cytometry) [4]: maintained significant labelling
microarray fluorescence signal at increasing drug concentration ([5]; Penicillin G 0 to 32 μg/mL, 2 hours, vs untreated controls): considerably reduced signal
microarray fluorescence signal over drug treatment time [5, 13]: negligible signal even at 4 hours
microarray fluorescence signal at increasing drug concentration ([6]; Penicillin G 0 to 32 μg/mL, 2 hours): maintained significant signal
microarray fluorescence signal over drug treatment time [6, 13]: increased with increasing penicillin G treatment time
metabolism of bacteria (MILab-ELISA OD 650 nm) [7]: completely inhibit the metabolism
metabolism of bacteria (MILab-ELISA OD 650 nm) [8]: high metabolic activity
MILab-LFA signal over drug treatment (incubation) time ([9]; penicillin G, up to 4 hours): no signal even after 4 hours
concentration that completely inhibits the bacteria (MILab-LFA test line) ([9]; susceptible bacteria SA 29213): 4 µg/mL
MILab-LFA signal over drug treatment (incubation) time ([10]; penicillin G, up to 4 hours): showed signal after 30 min
concentration that completely inhibits the bacteria (MILab-LFA test line) ([10]; resistant bacteria BAA39): 64 µg/mL
concentration at which weak Raman signals are generated ([11]; dose-dependence test, susceptible S. aureus): 8 µg/mL
Raman (SERS) signal over incubation time [11, 14]: negligible signals all the time
concentration at which weak Raman signals are generated ([12]; dose-dependence test, resistant S. aureus): 128 µg/mL
Raman (SERS) signal over incubation time [12, 14]: distinct Raman signal as short as 30 min

Reference: patent publication US20250059581A1, “METHOD OF BACTERIAL IDENTIFICATION AND TESTING OF BACTERIUM RESISTANT TO ONE OR MORE ANTIBIOTICS” (Nanyang Technological University, priority 2021, published 2025)
